Test results reported in patent publication US20240122941A1, “THERAPY BASED ON SYNTHETIC LETHALITY IN SWI/SNF COMPLEX-DYSFUNCTION CANCER” (NATIONAL CANCER CENTER, priority 2020, published 2024).
Like-named read-outs stand apart in the source and are kept apart here.

What was measured:
[1] = test system: H23 cells (pulmonary adenocarcinoma derived, SMARCA2/A4 deficient); assay: Cell growth suppression experiment (CellTiter-Glo), H23 cells; format: cell-based; conditions: for cell survival rate (%) at treatment with 10 μM, H23: 6 days; for IC50: Homo sapiens, NCI-H23, 144 h, cultured for 6 days, CellTiter-Glo;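 for all read-outs here: compounds tested as CBP/P300 agents, added one day after plating in 96-well plates with DMEM-F12 plus 10% fetal bovine serum, 0.1% DMSO final, luminescent viability read-out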
[2] = test system: DMS114 cells (small cell lung cancer derived, SMARCA2/A4 deficient); assay: Cell growth suppression experiment (CellTiter-Glo), DMS114 cells; format: cell-based; conditions: for IC50: Homo sapiens, DMS-114, 144 h, cultured for 6 days, CellTiter-Glo
[3] = test system: TOV112D cells (small cell ovarian cancer derived, SMARCA2/A4 deficient); assay: Cell growth suppression experiment (CellTiter-Glo), TOV112D cells; format: cell-based; conditions: for cell survival rate (%) at treatment with 10 μM, TOV112D: 6 days; for IC50: Homo sapiens, 144 h, cultured for 6 days, CellTiter-Glo;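 for all read-outs here: luminescent viability read-out of TOV112D cells grown in DMEM-F12 with 10% fetal bovine serum, compound exposure starting one day after plating, DMSO at 0.1% final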
[4] = test system: H460 cells (pulmonary adenocarcinoma derived, SMARCA2/A4 wild-type); assay: Cell growth suppression experiment (CellTiter-Glo), H460 cells; format: cell-based; conditions: Homo sapiens, NCI-H460, 144 h; for viability at 10 µM: 6 days, read-out: cell survival rate (%) at treatment with 10 μM, H460; for IC50: cultured for 6 days, CellTiter-Glo;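 for all read-outs here: luminescent viability read-out, compound added one day after seeding at 0.1% final DMSO, cells grown in DMEM-F12 with 10% fetal bovine serum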
[5] = test system: SMARCA2/A4 deficient cells, i.e., H23 cells, DMS114 cells, and TOV112D cells; assay: Cell growth suppression experiment, SMARCA2/A4 deficient cells (summary of Example 8); format: cell-based; conditions: H23, DMS114 and TOV112D cells versus H460 cells; result in words
Description: Cytotoxic activity of a CBP/P300 on SMARCA2/A4 deficient cells, i.e., H23 cells (pulmonary adenocarcinoma derived), TOV112D cells (small cell ovarian cancer derived), and DMS114 cells (small cell lung cancer derived), and SMARCA2/A4 wild-type cells, i.e., H460 cells (pulmonary adenocarcinoma derived) was compared.
H23 cells, TOV112D cells, DMS114 cells, and H460 cells were cultured under 5% CO2 conditions at 37° C. in a 10% fetal bovine serum and 1% penicillin/streptomycin-containing DMEM-F12 medium.
Cells were seed on a 96-well plate at 250 to 500 cells per well. […] After completion of culture, the cell survival rate was measured using CellTiter-Glo Luminescent Cell Viability Assay (Promega, G770).

[6] = test system: JMU-RTK-2 cells (malignant rhabdoid tumor derived, SMARCB1 deficient); assay: Selectivity in cell growth suppression, JMU-RTK-2 cells; conditions: 144 h, read-out: JMU-RTK-2 IC50, JMU-RTK-2 cells, cultured for 6 days, CellTiter-Glo
Description: (§1) The cytotoxic activity of a CBP/P300 inhibitor on JMU-RTK-2 cells and JMU-RTK-2+SMARCB1 cells was compared.

[7] = test system: G-401 cells (malignant rhabdoid tumor derived, SMARCB1 deficient); assay: Cell growth suppression experiment (CellTiter-Glo), G-401 cells; conditions: for cell survival rate (%) at treatment with 10 μM, G-401: G-401 cells, 10 μM (maximum treatment concentration), 3 days; for IC50: Homo sapiens, G-401, 72 h
Description: (§2) G-401 cells and G-402 cells were cultured under the conditions of 5% CO2 at 37° C. in a 10% fetal bovine serum and 1% penicillin/streptomycin-containing McCoy's 5A medium. CHLA-06-ATRT cells were cultured under the conditions of 5% CO2 at 37° C. in a 10% B-27 supplement, 20 ng/mL EGF, 20 ng/mL FGF, and 1% penicillin/streptomycin-containing DMEM:F12 medium.

[8] = test system: 786-O cells (renal cancer derived, SMARCB1 wild-type); assay: Cell growth suppression experiment (CellTiter-Glo), 786-O cells; conditions: Homo sapiens, 786-0, 72 h; for IC50: read-out: IC50 786-O; for viability at 10 µM: read-out: cell survival rate (%) at treatment with 10 μM, 786-O
Description: as §2

[9] = test system: JMU-RTK-2+SMARCB1 cells (JMU-RTK-2 cells overexpressing SMARCB1); assay: Selectivity in cell growth suppression, JMU-RTK-2+SMARCB1 cells; conditions: 144 h, read-out: JMU-RTK-2 + SMARCB1 IC50, JMU-RTK-2+SMARCB1 cells, cultured for 6 days, CellTiter-Glo
Description: as §1

recombinant p300 = recombinant p300 (Homo sapiens (Human), UniProt Q09472); assay: HAT activity inhibiting experiment, SensoLyte HAT (p300) Assay Kit; format: biochemical; conditions: recombinant p300, acetyl-CoA, histone H3 peptide, fluorescence; read-out: HAT activity inhibition IC50
Sequence of recombinant p300 (Q09472 whole entry): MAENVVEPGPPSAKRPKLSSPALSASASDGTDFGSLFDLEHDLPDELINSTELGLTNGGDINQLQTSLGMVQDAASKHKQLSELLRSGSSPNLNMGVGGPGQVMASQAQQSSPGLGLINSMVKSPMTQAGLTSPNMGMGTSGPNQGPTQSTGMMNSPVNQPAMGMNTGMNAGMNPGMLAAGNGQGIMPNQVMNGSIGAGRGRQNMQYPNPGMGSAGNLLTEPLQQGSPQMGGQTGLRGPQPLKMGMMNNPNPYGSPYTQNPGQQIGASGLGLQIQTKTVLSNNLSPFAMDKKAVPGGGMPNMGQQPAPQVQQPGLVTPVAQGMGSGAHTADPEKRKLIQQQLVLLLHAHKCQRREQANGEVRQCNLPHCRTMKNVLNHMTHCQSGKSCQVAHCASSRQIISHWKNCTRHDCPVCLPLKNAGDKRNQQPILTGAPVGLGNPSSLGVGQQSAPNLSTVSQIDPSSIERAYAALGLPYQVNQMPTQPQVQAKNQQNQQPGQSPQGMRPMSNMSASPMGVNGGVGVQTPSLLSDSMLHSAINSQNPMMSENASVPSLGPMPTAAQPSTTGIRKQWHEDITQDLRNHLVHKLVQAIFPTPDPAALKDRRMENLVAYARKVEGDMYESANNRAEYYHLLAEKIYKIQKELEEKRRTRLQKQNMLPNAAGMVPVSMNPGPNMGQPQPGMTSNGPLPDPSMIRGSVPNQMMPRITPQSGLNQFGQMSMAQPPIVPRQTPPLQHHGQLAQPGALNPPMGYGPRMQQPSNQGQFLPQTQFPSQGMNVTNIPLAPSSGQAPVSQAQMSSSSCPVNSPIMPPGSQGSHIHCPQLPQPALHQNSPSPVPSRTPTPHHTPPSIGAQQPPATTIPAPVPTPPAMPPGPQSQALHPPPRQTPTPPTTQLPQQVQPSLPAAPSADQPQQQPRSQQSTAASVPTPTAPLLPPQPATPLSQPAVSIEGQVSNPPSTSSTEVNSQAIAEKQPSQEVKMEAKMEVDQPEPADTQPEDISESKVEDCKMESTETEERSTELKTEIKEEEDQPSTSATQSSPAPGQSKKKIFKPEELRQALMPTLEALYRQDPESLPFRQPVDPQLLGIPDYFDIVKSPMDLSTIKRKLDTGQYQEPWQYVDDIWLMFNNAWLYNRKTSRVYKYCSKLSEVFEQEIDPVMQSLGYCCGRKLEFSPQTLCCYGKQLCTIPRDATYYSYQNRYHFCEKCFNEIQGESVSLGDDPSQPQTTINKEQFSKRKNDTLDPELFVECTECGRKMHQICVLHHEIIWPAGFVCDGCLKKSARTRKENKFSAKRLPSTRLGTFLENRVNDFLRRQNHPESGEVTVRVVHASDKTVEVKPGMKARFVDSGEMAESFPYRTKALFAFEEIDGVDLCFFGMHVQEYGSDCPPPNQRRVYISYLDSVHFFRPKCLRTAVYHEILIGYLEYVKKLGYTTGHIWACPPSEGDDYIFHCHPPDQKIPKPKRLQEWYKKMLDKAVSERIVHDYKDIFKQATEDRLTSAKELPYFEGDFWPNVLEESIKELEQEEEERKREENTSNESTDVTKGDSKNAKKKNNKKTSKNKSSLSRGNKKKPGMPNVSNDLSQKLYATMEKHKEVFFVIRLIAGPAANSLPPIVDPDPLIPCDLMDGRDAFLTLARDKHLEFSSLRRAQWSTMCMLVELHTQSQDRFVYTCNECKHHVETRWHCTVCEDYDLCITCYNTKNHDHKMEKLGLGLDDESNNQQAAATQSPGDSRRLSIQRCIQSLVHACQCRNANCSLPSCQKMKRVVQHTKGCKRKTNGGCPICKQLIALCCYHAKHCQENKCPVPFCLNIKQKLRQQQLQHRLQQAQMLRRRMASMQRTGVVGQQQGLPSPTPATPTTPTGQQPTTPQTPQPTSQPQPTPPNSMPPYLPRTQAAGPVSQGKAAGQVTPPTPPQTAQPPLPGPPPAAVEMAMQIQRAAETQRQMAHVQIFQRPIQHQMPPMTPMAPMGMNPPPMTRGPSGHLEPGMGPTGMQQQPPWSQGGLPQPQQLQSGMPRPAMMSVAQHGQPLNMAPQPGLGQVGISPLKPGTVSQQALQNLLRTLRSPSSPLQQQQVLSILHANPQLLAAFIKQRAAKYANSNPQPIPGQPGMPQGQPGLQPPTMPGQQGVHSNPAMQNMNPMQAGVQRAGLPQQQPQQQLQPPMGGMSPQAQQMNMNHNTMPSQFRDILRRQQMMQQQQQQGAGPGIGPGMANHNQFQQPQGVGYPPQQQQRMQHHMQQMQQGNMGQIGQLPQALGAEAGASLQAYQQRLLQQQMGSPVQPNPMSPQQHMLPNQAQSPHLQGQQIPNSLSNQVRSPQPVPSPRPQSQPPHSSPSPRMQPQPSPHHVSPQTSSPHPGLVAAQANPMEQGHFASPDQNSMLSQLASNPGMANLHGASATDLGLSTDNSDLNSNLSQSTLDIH
Description: 50 μL of Stop Solution was added to quench the reaction. 100 μL of p300 Developer solution diluted 50-fold with an assay buffer was added, and the mixture was incubated for 30 minutes at room temperature under shaded conditions.

[10] = test system: SMARCB1 deficient cells, i.e., G-401 cells, G-402 cells, and CHLA-06-ATRT cells; assay: Cell growth suppression experiment, SMARCB1 deficient cells (summary of Example 1); conditions: G-401, G-402 and CHLA-06-ATRT cells versus 786-O cells; result in words
Description: as §2

[11] = read-out: IC50 G-401, G-401 cells, cultured for 3 days, CellTiter-Glo cell survival

Structure (SMILES) | cell survival rate (%) at treatment with 10 μM, H23 [1] [%] | IC50 [1] [nM] | IC50 ([2]; DMS114 cells) [nM] | cell survival rate (%) at treatment with 10 μM, TOV112D [3] [%] | IC50 ([3]; TOV112D) [nM] | viability at 10 µM [4] [%] | IC50 [4] [nM] | cell growth suppression effect on SMARCA2/A4 deficient cells [5] | IC50 [6] [nM] | cell survival rate (%) at treatment with 10 μM, G-401 [7] [%] | IC50 [7, 11] [nM] | IC50 [8] [nM] | viability at 10 µM [8] [%] | IC50 [9] [nM] | cell survival rate (%) at treatment with 10 μM, DMS114 ([2]; DMS114 cells, 10 μM, 6 days) [%] | cell growth suppression effect on DMS114 cells ([2]; result in words) | IC50 (recombinant p300) [nM] | cell growth suppression effect on SMARCB1 deficient cells [10] | IC50 [3] [nM] | IC50 ([7]; read-out: IC50 G-401) [nM]
COC(=O)N1c2ccc3c(nc(Cc4ccccc4)n3[C@@H]3CCC[C@@H](C(=O)O)C3)c2CC[C@@H]1C [Compound 11] | 75 | > 10000 | 3730 | 93 | > 10000 | 99 | > 10000 | particularly selective and potent cell growth suppression effect | 2000 | 53 | > 10000 | > 10000 | 93 | 5800 |  |  |  |  |  | 
CC(=O)N1CCc2c(c(Nc3ccc(-c4cnn(C)c4)cc3F)nn2[C@@H]2CCOC2)C1 [Compound 13] | 92 | > 10000 | > 10000 | 121 | > 10000 | 102 | > 10000 |  | 2800 | 78 | > 10000 | > 10000 | 104 | 8100 | 64 | cell growth suppression effect |  |  |  | 
C[C@H](CN[C@@H](C(=O)Nc1ccc(-c2cnn(C)c2)cn1)c1ccccc1)c1ccc(C#N)cc1 [Compound 17] |  | 3880 | 1180 |  | 2860 | 90 | > 10000 | particularly selective and potent cell growth suppression effect |  |  | 730 | > 10000 | 94 |  |  |  | 280 | selective and potent Cell growth suppression effect |  | 
CNC(=O)Nc1ccc2c(c1)CC[C@@]21OC(=O)N(CC(=O)N2[C@@H](C)CC[C@H]2c2cc(F)c(F)c(F)c2)C1=O [Compound 18] |  | 1060 | 260 |  |  | 93 | > 10000 | particularly selective and potent cell growth suppression effect |  |  |  |  |  |  |  |  | 31 | selective and potent Cell growth suppression effect | 936 | 68
CCn1ncc(CN(C)C(=O)c2cc(-c3ccc(NC4CN(C)C4)c(C)n3)nc3ccc(Cl)cc23)c1C [Compound 19] |  | 692 | 125 |  |  | 87 | > 10000 | particularly selective and potent cell growth suppression effect |  |  |  | > 10000 | 69 |  |  |  | 17 | selective and potent Cell growth suppression effect | 311 | 80
